Source: ChEMBL document CHEMBL4715726, “Identification, characterization, kinetics, and molecular docking of flavonoid constituents from Archidendron clypearia (Jack.) Nielsen leaves and twigs” (Bioorg Med Chem, 2016)

These compounds were tested against T1, Bifunctional epoxide hydrolase 2 (Homo sapiens, UniProt P34913) (assay: Inhibition of sEH (unknown origin) assessed as reduction in 6-methoxy-2-naphthaldehyde formation using PHOME as substrate measured after 40 mins by fluorescence photometry analysis). Details: not given.
T1 sequence (P34913 whole entry): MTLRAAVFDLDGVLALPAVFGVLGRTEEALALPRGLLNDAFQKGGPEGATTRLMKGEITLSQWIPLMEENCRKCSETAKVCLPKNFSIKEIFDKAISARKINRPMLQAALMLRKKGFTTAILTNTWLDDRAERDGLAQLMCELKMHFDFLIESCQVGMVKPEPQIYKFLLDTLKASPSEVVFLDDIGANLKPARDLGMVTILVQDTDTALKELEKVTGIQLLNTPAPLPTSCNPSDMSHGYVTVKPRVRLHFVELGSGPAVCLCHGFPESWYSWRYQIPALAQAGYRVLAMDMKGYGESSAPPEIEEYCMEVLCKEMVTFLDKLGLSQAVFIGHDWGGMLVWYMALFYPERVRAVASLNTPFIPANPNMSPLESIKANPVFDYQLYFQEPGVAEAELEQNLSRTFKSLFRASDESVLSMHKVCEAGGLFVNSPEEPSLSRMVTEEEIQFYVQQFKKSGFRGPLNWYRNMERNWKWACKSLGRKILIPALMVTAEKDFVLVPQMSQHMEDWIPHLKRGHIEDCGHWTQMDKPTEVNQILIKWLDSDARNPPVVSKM
With `COc1cc(O)c2c(=O)cc(-c3ccc(O[C@@H]4O[C@H](CO)[C@@H](O)[C@H](O)[C@H]4O)c(OC)c3)oc2c1` the IC50 was 17.5 µM. With `O=C(Oc1cc(O)c2c(c1)O[C@H](c1cc(O)c(O)c(O)c1)CC2)c1cc(O)c(O)c(O)c1` the IC50 was 10 µM. `COc1cc(O)c2c(=O)c(O[C@@H]3O[C@H](CO)[C@@H](O)[C@H](O)[C@H]3O)c(-c3ccc(O[C@@H]4O[C@H](CO)[C@@H](O)[C@H](O)[C@H]4O)c(OC)c3)oc2c1` gave an IC50 of 19.8 µM. Work on `COc1cc(-c2oc3cc(O)cc(O)c3c(=O)c2O[C@@H]2O[C@H](CO)[C@@H](O)[C@H](O)[C@H]2O)ccc1O` yielded an IC50 of 30.1 µM. `O=C(Oc1c(-c2ccc(O)c(O)c2)oc2cc(O)cc(O)c2c1=O)c1cc(O)c(O)c(O)c1` was tested, and the IC50 was 11.5 µM. For `C[C@@H]1O[C@@H](Oc2c(-c3ccc(O)c(O)c3)oc3cc(O)cc(O)c3c2=O)[C@H](O)[C@H](O)[C@H]1O` [QUERCITRIN], the IC50 was 11.8 µM. `COc1cc(O)c2c(=O)c(OC)c(-c3ccc(O[C@@H]4O[C@H](CO)[C@@H](O)[C@H](O)[C@H]4O[C@@H]4OC[C@](O)(CO)[C@H]4O)c(OC)c3)oc2c1` gave an IC50 of 12 µM.

These compounds were tested against T1, Bifunctional epoxide hydrolase 2 (assay: Non competitive inhibition of sEH (unknown origin) using varying levels of PHOME as substrate by Dixon plot analysis). Details: not given.
Work on `O=C(Oc1c(-c2ccc(O)c(O)c2)oc2cc(O)cc(O)c2c1=O)c1cc(O)c(O)c(O)c1` yielded a Ki of 21.5 µM. In the case of `C[C@@H]1O[C@@H](Oc2c(-c3ccc(O)c(O)c3)oc3cc(O)cc(O)c3c2=O)[C@H](O)[C@H](O)[C@H]1O` [QUERCITRIN], the Ki is reported as 39.6 µM. In the case of `COc1cc(O)c2c(=O)c(OC)c(-c3ccc(O[C@@H]4O[C@H](CO)[C@@H](O)[C@H](O)[C@H]4O[C@@H]4OC[C@](O)(CO)[C@H]4O)c(OC)c3)oc2c1`, the Ki is reported as 18.2 µM.

The compounds below were run against T2, Bifunctional epoxide hydrolase 2 (Homo sapiens) (UniProt P34913). Details: dose 25.0 nM, time 40.0 min.
T2 sequence (whole entry): T1 sequence (P34913 whole entry)
Work on `CCCCOC(=O)CCCCCCCCCCCNC(=O)NC12CC3CC(CC(C3)C1)C2` yielded an inhibition of 58.9%.

The compounds below were run against T1, Bifunctional epoxide hydrolase 2 (assay: Mixed type inhibition of sEH (unknown origin) using varying levels of PHOME as substrate by Dixon plot analysis). Details: not given.
In the case of `COc1cc(O)c2c(=O)cc(-c3ccc(O[C@@H]4O[C@H](CO)[C@@H](O)[C@H](O)[C@H]4O)c(OC)c3)oc2c1`, the Ki is reported as 37.1 µM. Compound `O=C(Oc1cc(O)c2c(c1)O[C@H](c1cc(O)c(O)c(O)c1)CC2)c1cc(O)c(O)c(O)c1` has a Ki of 45.5 µM. `COc1cc(-c2oc3cc(O)cc(O)c3c(=O)c2O[C@@H]2O[C@H](CO)[C@@H](O)[C@H](O)[C@H]2O)ccc1O` gave a Ki of 29.7 µM.

The compounds below were run against T2, Bifunctional epoxide hydrolase 2 (Homo sapiens) (assay: Inhibition of sEH (unknown origin) assessed as reduction in 6-methoxy-2-naphthaldehyde formation at 100 uM using PHOME as substrate measured after 40 mins by fluorescence photometry analysis relative to control). Details: not given.
Work on `COc1cc(O)c2c(=O)cc(-c3ccc(O[C@@H]4O[C@H](CO)[C@@H](O)[C@H](O)[C@H]4O)c(OC)c3)oc2c1` yielded an inhibition of 98.5%. Compound `COc1cc(O)c2c(=O)cc(-c3ccc(O[C@@H]4O[C@H](CO)[C@@H](O)[C@H](O)[C@H]4O[C@@H]4OC[C@](O)(CO)[C@H]4O)c(OC)c3)oc2c1` has an inhibition of 66.1%. Compound `O=C(Oc1cc(O)c2c(c1)O[C@H](c1cc(O)c(O)c(O)c1)CC2)c1cc(O)c(O)c(O)c1` has an inhibition of 90.8%. In the case of `COc1cc(O)c2c(=O)c(O[C@@H]3O[C@H](CO)[C@@H](O)[C@H](O)[C@H]3O)c(-c3ccc(O[C@@H]4O[C@H](CO)[C@@H](O)[C@H](O)[C@H]4O)c(OC)c3)oc2c1`, the inhibition is reported as 95.8%. For `COc1cc(O)c2c(=O)c(O)c(-c3ccc(O[C@@H]4O[C@H](CO)[C@@H](O)[C@H](O)[C@H]4O[C@@H]4OC[C@](O)(CO)[C@H]4O)c(OC)c3)oc2c1`, the inhibition was 64.1%. In the case of `COc1cc(-c2oc3cc(O)cc(O)c3c(=O)c2O[C@@H]2O[C@H](CO)[C@@H](O)[C@H](O)[C@H]2O)ccc1O`, the inhibition is reported as 86.5%. Work on `COc1cc(O)c(C(=O)/C=C/c2ccc(O)c(OC)c2)c(O[C@@H]2O[C@H](CO)[C@@H](O)[C@H](O)[C@H]2O)c1` yielded an inhibition of 56.3%. Compound `O=C(Oc1c(-c2ccc(O)c(O)c2)oc2cc(O)cc(O)c2c1=O)c1cc(O)c(O)c(O)c1` has an inhibition of 91.2%. In the case of `C[C@@H]1O[C@@H](Oc2c(-c3ccc(O)c(O)c3)oc3cc(O)cc(O)c3c2=O)[C@H](O)[C@H](O)[C@H]1O` [QUERCITRIN], the inhibition is reported as 78.5%. In the case of `COc1cc(O)c2c(=O)c(OC)c(-c3ccc(O[C@@H]4O[C@H](CO)[C@@H](O)[C@H](O)[C@H]4O[C@@H]4OC[C@](O)(CO)[C@H]4O)c(OC)c3)oc2c1`, the inhibition is reported as 90.8%. In the case of `COc1cc([C@@H](O)CC(=O)c2c(O)cc(O[C@@H]3O[C@H](CO)[C@@H](O)[C@H](O)[C@H]3O[C@@H]3OC[C@](O)(CO)[C@H]3O)cc2O)ccc1O`, the inhibition is reported as 50.9%. `COc1cc([C@@H](O)CC(=O)c2c(O)cc(O[C@@H]3O[C@H](CO)[C@@H](O)[C@H](O)[C@H]3O)cc2O)ccc1O` was tested, and the inhibition was 33.9%. For `COc1cc(O)c2c(c1)O[C@H](c1cc(O)c(O[C@@H]3O[C@H](CO)[C@@H](O)[C@H](O)[C@H]3O[C@@H]3OC[C@](O)(CO)[C@H]3O)c(OC)c1)CC2=O`, the inhibition was 53.5%.

The compounds below were run against T1, Bifunctional epoxide hydrolase 2 (assay: Competitive inhibition of sEH (unknown origin) using varying levels of PHOME as substrate by Dixon plot analysis). Details: not given.
For `COc1cc(O)c2c(=O)c(O[C@@H]3O[C@H](CO)[C@@H](O)[C@H](O)[C@H]3O)c(-c3ccc(O[C@@H]4O[C@H](CO)[C@@H](O)[C@H](O)[C@H]4O)c(OC)c3)oc2c1`, the Ki was 24.6 µM.
